Test results taken from PMC6106931 (Alzheimer's Research & Therapy, 2018).

Assay: Clinical safety, Study ALZ1005
Format: in vivo, human
Conditions: for patients with one or more TEAEs: Caucasian early AD
[1] = MCI due to AD, JNJ-54861911 total, N=20
[2] = both atabecestat groups, 3 of 31 patients
[3] = preclinical AD, JNJ-54861911 total, N=11

Method: Safety and tolerability were assessed during the study by recording adverse events (AEs), clinically significant abnormalities, clinical laboratory tests, ECG, and vital signs and by performing physical, neurological, and MRI examinations. All enrolled participants were included in the safety analysis population.

## C[C@@]1(c2cc(NC(=O)c3ccc(C#N)cn3)ccc2F)C=CSC(N)=N1 [atabecestat]
10 mg, one participant, day 28
  relevant abnormal neurological finding: mild ataxia
50-mg group
  events considered possibly related to the study drug: urticaria (n = 1)
  events considered probably related to the study drug: nausea (n = 1), dementia of Alzheimer’s type (n = 1), headache (n = 1)
Caucasian and Japanese, 10 and 50 mg, 4 weeks
  tolerability: well tolerated
10-mg group, 3 of 15 patients
  patients with one or more TEAEs: 20.0%
50-mg group, 8 of 16 patients
  patients with one or more TEAEs: 50.0%
Caucasian, atabecestat groups, 80.6% at baseline
  participants with no microhemosiderin deposits in the brain on MRI at end of treatment: 90.3%
MCI due to AD, 10 mg, N=10
  Subjects with any TEAE: ^2 (20.0) n (%)
  TEAE: Accidental overdose: ^1 (10.^0) n (%)
  TEAE: Anxiety: ^0 n (%)
  TEAE: Bladder cancer: ^0 n (%)
  TEAE: Conjunctivitis: ^0 n (%)
  TEAE: Dementia Alzheimer’s type: ^0 n (%)
  TEAE: Depressed mood: ^0 n (%)
  TEAE: Dermatitis allergic: ^0 n (%)
  TEAE: Dizziness: ^0 n (%)
  TEAE: Eczema vesicular: ^0 n (%)
  TEAE: Fatigue: ^0 n (%)
  TEAE: Gastrointestinal disorders: ^0 n (%)
  TEAE: General disorders and administration site conditions: ^0 n (%)
  TEAE: Headache: ^0 n (%)
  TEAE: Hypertension: ^0 n (%)
  TEAE: Infections and infestations: ^0 n (%)
  TEAE: Injury, poisoning and procedural complications: ^2 (20.0) n (%)
  TEAE: Insomnia: ^0 n (%)
  TEAE: Irritability: ^0 n (%)
  TEAE: Musculoskeletal and connective tissue disorders: ^0 n (%)
  TEAE: Nasopharyngitis: ^0 n (%)
  TEAE: Nausea: ^0 n (%)
  TEAE: Neck pain: ^0 n (%)
  TEAE: Neoplasms benign, malignant and unspecified: ^0 n (%)
  TEAE: Nervous system disorders: ^0 n (%)
  TEAE: Post lumbar puncture syndrome: ^2 (20.^0) n (%)
  TEAE: Psoriasis: ^0 n (%)
  TEAE: Psychiatric disorders: ^0 n (%)
  TEAE: Renal and urinary disorders: ^0 n (%)
  TEAE: Renal colic: ^0 n (%)
  TEAE: Reproductive system and breast disorders: ^0 n (%)
  TEAE: Skin and subcutaneous tissue disorders: ^0 n (%)
  TEAE: Somnolence: ^0 n (%)
  TEAE: Syncope: ^0 n (%)
  TEAE: Urticaria: ^0 n (%)
  TEAE: Vascular disorders: ^0 n (%)
  TEAE: Vulvovaginal candidiasis: ^0 n (%)
  TEAE: Vulvovaginal pruritus: ^0 n (%)
MCI due to AD, 50 mg, N=10
  Subjects with any TEAE: ^6 (60.0) n (%)
  TEAE: Accidental overdose: ^1 (10.^0) n (%)
  TEAE: Anxiety: ^1 (10.^0) n (%)
  TEAE: Bladder cancer: ^0 n (%)
  TEAE: Conjunctivitis: ^0 n (%)
  TEAE: Dementia Alzheimer’s type: ^1 (10.^0) n (%)
  TEAE: Depressed mood: ^1 (10.^0) n (%)
  TEAE: Dermatitis allergic: ^1 (10.^0) n (%)
  TEAE: Dizziness: ^0 n (%)
  TEAE: Eczema vesicular: ^1 (10.^0) n (%)
  TEAE: Fatigue: ^0 n (%)
  TEAE: Gastrointestinal disorders: ^1 (10.0) n (%)
  TEAE: General disorders and administration site conditions: ^0 n (%)
  TEAE: Headache: ^1 (10.^0) n (%)
  TEAE: Hypertension: ^0 n (%)
  TEAE: Infections and infestations: ^1 (10.^0) n (%)
  TEAE: Injury, poisoning and procedural complications: ^2 (20.^0) n (%)
  TEAE: Insomnia: ^0 n (%)
  TEAE: Irritability: ^1 (10.^0) n (%)
  TEAE: Musculoskeletal and connective tissue disorders: ^1 (10.^0) n (%)
  TEAE: Nasopharyngitis: ^0 n (%)
  TEAE: Nausea: ^1 (10·^0) n (%)
  TEAE: Neck pain: ^1 (10.^0) n (%)
  TEAE: Neoplasms benign, malignant and unspecified: ^0 n (%)
  TEAE: Nervous system disorders: ^2 (^20^.0) n (%)
  TEAE: Post lumbar puncture syndrome: ^1 (10.^0) n (%)
  TEAE: Psoriasis: ^0 n (%)
  TEAE: Psychiatric disorders: ^2 (^20^.0) n (%)
  TEAE: Renal and urinary disorders: ^1 (10.^0) n (%)
  TEAE: Renal colic: ^1 (10.^0) n (%)
  TEAE: Reproductive system and breast disorders: ^1 (10.^0) n (%)
  TEAE: Skin and subcutaneous tissue disorders: ^2 (^20^.0) n (%)
  TEAE: Somnolence: ^0 n (%)
  TEAE: Syncope: ^0 n (%)
  TEAE: Urticaria: ^0 n (%)
  TEAE: Vascular disorders: ^0 n (%)
  TEAE: Vulvovaginal candidiasis: ^1 (10.^0) n (%)
  TEAE: Vulvovaginal pruritus: ^1 (10.^0) n (%)
[1]
  Subjects with any TEAE: ^8 (40.0) n (%)
  TEAE: Accidental overdose: ^2 (10.0) n (%)
  TEAE: Anxiety: ^1 (5.0) n (%)
  TEAE: Bladder cancer: ^0 n (%)
  TEAE: Conjunctivitis: ^0 n (%)
  TEAE: Dementia Alzheimer’s type: ^1 (5.0) n (%)
  TEAE: Depressed mood: ^1 (5.0) n (%)
  TEAE: Dermatitis allergic: ^1 (5.0) n (%)
  TEAE: Dizziness: ^0 n (%)
  TEAE: Eczema vesicular: ^1 (5.0) n (%)
  TEAE: Fatigue: ^0 n (%)
  TEAE: Gastrointestinal disorders: ^1 (5.0) n (%)
  TEAE: General disorders and administration site conditions: ^0 n (%)
  TEAE: Headache: ^1 (5.0) n (%)
  TEAE: Hypertension: ^0 n (%)
  TEAE: Infections and infestations: ^1 (5.0) n (%)
  TEAE: Injury, poisoning and procedural complications: ^4 (20.0) n (%)
  TEAE: Insomnia: ^0 n (%)
  TEAE: Irritability: ^1 (5.0) n (%)
  TEAE: Musculoskeletal and connective tissue disorders: ^1 (5.0) n (%)
  TEAE: Nasopharyngitis: ^0 n (%)
  TEAE: Nausea: ^1 (5.0) n (%)
  TEAE: Neck pain: ^1 (5.0) n (%)
  TEAE: Neoplasms benign, malignant and unspecified: ^0 n (%)
  TEAE: Nervous system disorders: ^2 (10.0) n (%)
  TEAE: Post lumbar puncture syndrome: ^3 (15.0) n (%)
  TEAE: Psoriasis: ^0 n (%)
  TEAE: Psychiatric disorders: ^2 (10.0) n (%)
  TEAE: Renal and urinary disorders: ^1 (5.0) n (%)
  TEAE: Renal colic: ^1 (5.0) n (%)
  TEAE: Reproductive system and breast disorders: ^1 (5.0) n (%)
  TEAE: Skin and subcutaneous tissue disorders: ^2 (10.0) n (%)
  TEAE: Somnolence: ^0 n (%)
  TEAE: Syncope: ^0 n (%)
  TEAE: Urticaria: ^0 n (%)
  TEAE: Vascular disorders: ^0 n (%)
  TEAE: Vulvovaginal candidiasis: ^1 (5.0) n (%)
  TEAE: Vulvovaginal pruritus: ^1 (5.0) n (%)
Both atabecestat groups, 2 patients
  TEAE accidental overdose: 6.5%
[2]
  TEAE psychiatric disorders: 9.7%
  TEAE skin and subcutaneous tissue disorders: 9.7%
Both atabecestat groups, 4 patients
  TEAE post-lumbar puncture syndrome: 12.9%
Both atabecestat groups, 5 of 31 patients
  TEAE SOC injury, poisoning, and procedural complications: 16.1%
Both studies
  changes from baseline in clinical laboratory analytes, liver function tests, vital signs, neurologic and physical examinations: no clinically significant trends
  deaths or TEAEs leading to discontinuation: no deaths or TEAEs leading to discontinuation
Early AD population
  ECG parameters, mean and median changes over time from predose: no treatment- or dose-related changes
Preclinical AD, 10 mg, N=5
  Subjects with any TEAE: ^1 (20.0%) n (%)
  TEAE: Accidental overdose: ^0 n (%)
  TEAE: Anxiety: ^0 n (%)
  TEAE: Bladder cancer: ^0 n (%)
  TEAE: Conjunctivitis: ^0 n (%)
  TEAE: Dementia Alzheimer’s type: ^0 n (%)
  TEAE: Depressed mood: ^0 n (%)
  TEAE: Dermatitis allergic: ^0 n (%)
  TEAE: Dizziness: ^0 n (%)
  TEAE: Eczema vesicular: ^0 n (%)
  TEAE: Fatigue: ^0 n (%)
  TEAE: Gastrointestinal disorders: ^0 n (%)
  TEAE: General disorders and administration site conditions: ^0 n (%)
  TEAE: Headache: ^0 n (%)
  TEAE: Hypertension: ^1 (20.^0) n (%)
  TEAE: Infections and infestations: ^0 n (%)
  TEAE: Injury, poisoning and procedural complications: ^0 n (%)
  TEAE: Insomnia: ^0 n (%)
  TEAE: Irritability: ^0 n (%)
  TEAE: Musculoskeletal and connective tissue disorders: ^0 n (%)
  TEAE: Nasopharyngitis: ^0 n (%)
  TEAE: Nausea: ^0 n (%)
  TEAE: Neck pain: ^0 n (%)
  TEAE: Neoplasms benign, malignant and unspecified: ^0 n (%)
  TEAE: Nervous system disorders: ^0 n (%)
  TEAE: Post lumbar puncture syndrome: ^0 n (%)
  TEAE: Psoriasis: ^0 n (%)
  TEAE: Psychiatric disorders: ^0 n (%)
  TEAE: Renal and urinary disorders: ^0 n (%)
  TEAE: Renal colic: ^0 n (%)
  TEAE: Reproductive system and breast disorders: ^0 n (%)
  TEAE: Skin and subcutaneous tissue disorders: ^0 n (%)
  TEAE: Somnolence: ^0 n (%)
  TEAE: Syncope: ^0 n (%)
  TEAE: Urticaria: ^0 n (%)
  TEAE: Vascular disorders: ^1 (20.0) n (%)
  TEAE: Vulvovaginal candidiasis: ^0 n (%)
  TEAE: Vulvovaginal pruritus: ^0 n (%)
Preclinical AD, 50 mg, N=6
  Subjects with any TEAE: ^2 (33.3) n (%)
  TEAE: Accidental overdose: ^0 n (%)
  TEAE: Anxiety: ^0 n (%)
  TEAE: Bladder cancer: ^0 n (%)
  TEAE: Conjunctivitis: ^0 n (%)
  TEAE: Dementia Alzheimer’s type: ^0 n (%)
  TEAE: Depressed mood: ^0 n (%)
  TEAE: Dermatitis allergic: ^0 n (%)
  TEAE: Dizziness: ^0 n (%)
  TEAE: Eczema vesicular: ^0 n (%)
  TEAE: Fatigue: ^1 (16.7^) n (%)
  TEAE: Gastrointestinal disorders: ^0 n (%)
  TEAE: General disorders and administration site conditions: ^1 (16.7) n (%)
  TEAE: Headache: ^0 n (%)
  TEAE: Hypertension: ^0 n (%)
  TEAE: Infections and infestations: ^0 n (%)
  TEAE: Injury, poisoning and procedural complications: ^1 (16.7) n (%)
  TEAE: Insomnia: ^1 (16.^7) n (%)
  TEAE: Irritability: ^0 n (%)
  TEAE: Musculoskeletal and connective tissue disorders: ^0 n (%)
  TEAE: Nasopharyngitis: ^0 n (%)
  TEAE: Nausea: ^0 n (%)
  TEAE: Neck pain: ^0 n (%)
  TEAE: Neoplasms benign, malignant and unspecified: ^0 n (%)
  TEAE: Nervous system disorders: ^0 n (%)
  TEAE: Post lumbar puncture syndrome: ^1 (16.7^) n (%)
  TEAE: Psoriasis: ^1 (16.^7) n (%)
  TEAE: Psychiatric disorders: ^1 (16.^7) n (%)
  TEAE: Renal and urinary disorders: ^0 n (%)
  TEAE: Renal colic: ^0 n (%)
  TEAE: Reproductive system and breast disorders: ^0 n (%)
  TEAE: Skin and subcutaneous tissue disorders: ^1 (16.^7) n (%)
  TEAE: Somnolence: ^0 n (%)
  TEAE: Syncope: ^0 n (%)
  TEAE: Urticaria: ^1 (16.^7) n (%)
  TEAE: Vascular disorders: ^0 n (%)
  TEAE: Vulvovaginal candidiasis: ^0 n (%)
  TEAE: Vulvovaginal pruritus: ^0 n (%)
[3]
  Subjects with any TEAE: ^3 (27.3) n (%)
  TEAE: Fatigue: ^1 (9.1) n (%)
  TEAE: General disorders and administration site conditions: ^1 (9.1) n (%)
  TEAE: Hypertension: ^1 (9.1) n (%)
  TEAE: Injury, poisoning and procedural complications: ^1 (9.1) n (%)
  TEAE: Insomnia: ^1 (9.1) n (%)
  TEAE: Nervous system disorders: ^0 n (%)
  TEAE: Post lumbar puncture syndrome: ^1 (9.1) n (%)
  TEAE: Psoriasis: ^1 (9.1) n (%)
  TEAE: Psychiatric disorders: ^1 (9.1) n (%)
  TEAE: Skin and subcutaneous tissue disorders: ^1 (9.1) n (%)
  TEAE: Somnolence: ^0 n (%)
  TEAE: Urticaria: ^1 (9.1) n (%)
  TEAE: Vascular disorders: ^1 (9.1) n (%)
